US20200038411A1, “METHODS OF TREATING TE[…]” (priority 2017, published 2020)
“Also recorded” adds a separate entry of the source.

How the values were obtained:
[1] = men; upper range for testosterone administered as TU (lymphatic absorption); cited from earlier work
[2] = Blood collected into different tubes spiked with TU, measured T (LA Biomed experiments); format: in vitro ADME, human
Source text: Additionally, non-specific esterases in blood may lead to hydrolysis of testosterone undecanoate (TU) (and its metabolite DHTU) during the blood collection procedure used to collect serum or plasma for evaluating T, dihydrotestosterone (DHT), TU and dihydrotestosterone undecanoate (DHTU) concentrations. If the extent of hydrolysis ex vivo is significant (e.g., at high concentrations of circulating TU or DHTU), then serum or plasma values of T, DHT, TU and DHTU may not accurately reflect the true in vivo concentrations of these compounds (e.g., T and DHT values may be artificially high due to ex vivo conversion of TU to T or DHTU to DHT). It has previously been shown that the collection of blood in sodium fluoride (NaF) containing tubes (so called ‘gray tops’ in a clinical setting) interfered with the measurement of serum T with a 20% decrease in the measured serum T levels (Wang, et al, 2008). […] In addition, the measured T concentrations in fluoride-containing tubes decreased by about 12 to 25%. Lachance et al published an article in 2015 that concluded T must be analyzed in enzyme-inhibited (i.e., NaF containing) plasma or serum when TU is administered to subjects in an oral form.

[3] = In vitro conversion of TU to T in whole blood at ambient temperature; format: in vitro ADME; conditions: human blood, conditions typical of harvesting serum, no enzyme inhibitors
Experimental: Testosterone undecanoate is metabolized into testosterone. Its degradation in whole blood into testosterone has been studied in conditions typically used in clinical trials.
The in vitro conversion of TU to T in whole blood samples at ambient temperature was investigated by harvesting approximately 50 mL of blood from subjects prior to their oral TU administration. Aliquots of the pretreatment whole blood were added to 5 Plain sample collection tubes each tube previously spiked with 1 of 5 selected concentrations of TU (0, 30, 100, 300 and 1000 ng/mL). After gentle mixing, the tubes were stored at room temperature (about 23° C.) for 30 minutes prior to separating serum. […]
The frozen samples were stored at −20° C. until assay. All samples from a single participant were analyzed in the same assay run. Serum and plasma from the different tubes were measured using the methods developed for serum. Both T and DHT were measured in the same assay and both TU and […] were analyzed in the same assay developed for serum measurements. […]
When serum is harvested in the absence of enzyme inhibitors, the hydrolysis of TU and DHTU to T and DHT occurs during whole blood collection and processing to serum. […] Thus, testosterone must be analyzed in enzyme-inhibited plasma when TU is the administered medication.

[4] = Single 316 mg oral TU dose, T concentration-time profiles by sample collection tube type; format: in vivo, human; conditions: 3 hours post dose
Experimental: Each study participant received a single oral TU dose containing 316 mg TU immediately prior to a standardized breakfast meal comprised of 800 to 1000 calories containing approximately 30 g of fat or about 25 to 30 percent fat. Subjects were instructed to consume the entire breakfast meal in no more than 30 minutes. Blood samples were collected 30 minutes prior to oral TU administration and at 0 (pre-dose), and 1, 2, 3, 4, 5, 6, 7, 8, 9, 10, 11 and 12 hrs post-dose. Because of the timed sample collections, all except for one subject entered the clinical research unit around 7 AM and spend the study period of 12 to 14 hours in the unit. […]
Blood samples collected in tubes were kept at room temperature for 30 minutes then centrifuged at 4° C. for 20 minutes at >1000 g. For each blood collection tube, serum was separated promptly after centrifugation and equal quantities of serum were transferred into 2 appropriately labelled polypropylene tubes. […]
Blood samples collected in tubes were immediately kept on ice for 30 minutes then centrifuged at 4° C. for 20 minutes at >1000 g. For each blood collection tube, serum was separated promptly after centrifugation and equal quantities of serum were transferred into 2 appropriately labelled polypropylene tubes. […]
The frozen samples were stored at −20° C. until assay. All samples from a single participant were analyzed in the same assay run. […]

For C[C@]12CC[C@H]3[C@@H](CCC4=CC(=O)CC[C@@]43C)[C@@H]1CC[C@@H]2O [T, Testosterone], the “plasma half-life of testosterone” value [1] is listed as 10 to 100 min.

With CCCCCCCCCCC(=O)O[C@H]1CC[C@H]2[C@@H]3CCC4=CC(=O)CC[C@]4(C)[C@H]3CC[C@]12C [TU, testosterone undecanoate] the “increases in the measured T levels after spiking with TU” value ([2]; NaF+oxalate and NaF+EDTA tubes kept at 4° C. for 30 minutes, 0, 300 or 600 ng/ml TU) was “minimal increases”, the “increase in measured T concentrations (ex vivo conversion of TU to T)” value ([2]; addition of TU in excess of 500 ng/ml, standard 'red top' plain tubes without additives) was 20 to 25% and the “degradation (conversion) of TU to testosterone in whole blood” value [3] was “degrades extensively; also recorded: extensive and continues over time”. For the same molecule, the “difference in mean T concentration between the Plain tube type and the other tube types” value [4] was “approximately 150 ng/dL” and the “mean assayed T concentration of NaF tube types, less than the Plain tube type” value [4] was “approximately 14%”.
